Measurements from US20180099931A1 (AbbVie S.à.r.l., priority 2016, published 2018).
Where two headings read alike, the source gives them in different places.

Molecular target: T1, F508delCFTR (Homo sapiens, UniProt P13569, DEL508-508)
T1 construct: expressed in transfected cells; host or cells: CFBE41o- human lung-derived epithelial cells (CFBE4lo-F508delCFTR-HRP), doxycycline-inducible
Test: Cell Surface Expression-Horse Radish Peroxidase (CSE-HRP) Assay;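 for Maximum % activity (with co-corrector): co-corrector and positive control are both the same reference corrector at 2 µM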;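 for Maximum % activity (without co-corrector): percent of the 2 µM on-plate positive control corrector response above DMSO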
Type: cell-based
Conditions: for Emax: read-out: Maximum % activity (without co-corrector)

[1] = CSE-HRP, test compound without co-corrector, read-out: EC50 (without co-corrector)
[2] = CSE-HRP, with co-corrector (2 μM of 3-[(2R,4R)-4-({[1-(2,2-difluoro-1,3-benzodioxol-5-yl)cyclopropyl]carbonyl}amino)-7-methoxy-3,4-dihydro-2H-chromen-2-yl]benzoic acid), read-out: EC50 (with co-corrector)
[3] = CSE-HRP, with co-corrector (2 μM), maximum at any tested concentration, normalized to on-plate positive control
[4] = CSE-HRP, without co-corrector, maximum at any tested concentration, normalized to on-plate positive control
[5] = test compound without co-corrector, read-out: EC50 (without co-corrector)
[6] = with co-corrector (2 μM of 3-[(2R,4R)-4-({[1-(2,2-difluoro-1,3-benzodioxol-5-yl)cyclopropyl]carbonyl}amino)-7-methoxy-3,4-dihydro-2H-chromen-2-yl]benzoic acid), read-out: EC50 (with co-corrector)
[7] = with co-corrector (2 μM), maximum at any tested concentration, normalized to on-plate positive control
[8] = without co-corrector, maximum at any tested concentration, normalized to on-plate positive control
[9] = test compound without co-corrector, maximum at any tested concentration, normalized to on-plate positive control
[10] = with co-corrector (2 μM of 3-[(2R,4R)-4-({[1-(2,2-difluoro-1,3-benzodioxol-5-yl)cyclopropyl]carbonyl}amino)-7-methoxy-3,4-dihydro-2H-chromen-2-yl]benzoic acid), maximum at any tested concentration, normalized to on-plate positive control

T1 sequence (P13569 with tags, fused parts or gaps DEL508-508): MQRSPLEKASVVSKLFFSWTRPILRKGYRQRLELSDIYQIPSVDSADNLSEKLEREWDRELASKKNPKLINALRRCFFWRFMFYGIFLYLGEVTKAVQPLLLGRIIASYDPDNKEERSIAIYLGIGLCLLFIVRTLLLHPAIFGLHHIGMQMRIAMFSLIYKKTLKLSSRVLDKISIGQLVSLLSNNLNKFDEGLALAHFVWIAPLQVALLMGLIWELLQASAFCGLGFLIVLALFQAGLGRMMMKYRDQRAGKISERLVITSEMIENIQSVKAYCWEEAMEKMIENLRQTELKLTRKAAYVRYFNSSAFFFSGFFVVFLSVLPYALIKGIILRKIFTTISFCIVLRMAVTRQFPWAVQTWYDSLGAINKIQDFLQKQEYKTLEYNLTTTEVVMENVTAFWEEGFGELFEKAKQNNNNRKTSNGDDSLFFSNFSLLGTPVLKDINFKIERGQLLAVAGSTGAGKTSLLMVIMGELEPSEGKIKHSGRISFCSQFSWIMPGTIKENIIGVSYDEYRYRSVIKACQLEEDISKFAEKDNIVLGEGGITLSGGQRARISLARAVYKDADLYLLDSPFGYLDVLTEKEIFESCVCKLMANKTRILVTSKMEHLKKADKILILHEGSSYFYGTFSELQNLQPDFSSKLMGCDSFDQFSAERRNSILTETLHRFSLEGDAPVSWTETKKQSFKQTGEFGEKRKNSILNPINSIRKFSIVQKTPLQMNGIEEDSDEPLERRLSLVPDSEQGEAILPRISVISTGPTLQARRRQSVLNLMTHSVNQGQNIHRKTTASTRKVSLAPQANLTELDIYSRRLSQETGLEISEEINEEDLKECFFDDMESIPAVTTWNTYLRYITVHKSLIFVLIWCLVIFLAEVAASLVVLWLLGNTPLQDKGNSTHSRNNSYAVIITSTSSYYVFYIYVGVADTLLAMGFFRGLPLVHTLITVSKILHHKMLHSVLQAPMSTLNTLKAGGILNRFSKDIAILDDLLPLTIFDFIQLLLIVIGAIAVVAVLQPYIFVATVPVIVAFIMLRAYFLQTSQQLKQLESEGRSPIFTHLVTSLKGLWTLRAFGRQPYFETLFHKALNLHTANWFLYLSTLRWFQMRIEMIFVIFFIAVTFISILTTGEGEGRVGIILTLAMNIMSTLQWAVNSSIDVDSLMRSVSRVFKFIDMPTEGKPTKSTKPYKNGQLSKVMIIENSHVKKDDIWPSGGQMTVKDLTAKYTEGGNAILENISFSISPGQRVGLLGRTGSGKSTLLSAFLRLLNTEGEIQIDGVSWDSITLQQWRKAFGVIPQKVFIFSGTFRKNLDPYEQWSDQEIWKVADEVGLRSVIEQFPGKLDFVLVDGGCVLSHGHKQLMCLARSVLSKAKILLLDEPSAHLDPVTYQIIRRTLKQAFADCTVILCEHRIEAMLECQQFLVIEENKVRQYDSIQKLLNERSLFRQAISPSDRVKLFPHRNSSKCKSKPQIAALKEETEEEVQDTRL

Row | SMILES | EC50 [1] [µM] | EC50 [2] [µM] | EC50 [5] [µM] | EC50 [6] [µM] | Maximum % activity (with co-corrector) [7] | Emax [8] [%] | further results
1 | COc1nc(C(C)(C)C)ccc1CN[C@H]1[C@H](C(C)(C)C)[C@@H](C(=O)O)N(C(=O)C2CCCCO2)[C@H]1c1ccccc1C(C)C (stereo partly shown) [Example I-177] |  |  | < 1 | < 1 | +++ (≥350) | > 200 | 
2 | COc1ccc(C(F)(F)F)cc1CN[C@H]1[C@H](C(C)(C)C)[C@@H](C(=O)O)N(C(=O)[C@@H]2CCC[C@@H](OC)C2)[C@H]1c1ccccc1 [Example I-59] |  |  | 1 to 10 | 1 to 10 | +++ (≥350) | > 200 | 
3 | COc1ncc(Cc2ccccc2)cc1CN[C@H]1[C@H](C(C)(C)C)[C@@H](C(=O)O)N(C(=O)C2CCCCC2)[C@H]1c1ccccc1 [Example I-69] |  |  | < 1 | < 1 | +++ (≥350) | 100 to 200 | 
4 | COc1cc(C(F)(F)F)ccc1CN[C@H]1[C@H](C(C)(C)C)[C@@H](C(=O)O)N(C(=O)[C@@H]2CCCC(F)(F)C2)[C@H]1c1ccccc1 [Example 75, (2S,3S,4S,5S)-3-tert-butyl-1-[(1R)-3,3-difluorocyclohexane-1-carbonyl]-4-({[2-methoxy-4-(trifluoromethyl)phenyl]methyl}amino)-5-phenylpyrrolidine-2-carboxylic acid] |  |  | 1 to 10 | < 1 | +++ (≥350) | > 200 | 
5 | COc1ccc2ccccc2c1CN[C@H]1[C@H](C(C)(C)C)[C@@H](C(=O)O)N(C(=O)C2CCCCC2)[C@H]1c1ccccc1 [Example I-188] |  |  | 1 to 10 | 1 to 10 | ++ (≥150 and <350) | < 100 | 
6 | CCC(CC)Cc1cnc(OC)c(CN[C@H]2[C@H](C(C)(C)C)[C@@H](C(=O)O)N(C(=O)C3CCCCC3)[C@H]2c2ccccc2)c1 [Example I-74] |  |  | < 1 | < 1 | +++ (≥350) | > 200 | 
7 | COc1ccc(-c2ccccc2C#N)cc1CN[C@H]1[C@H](C(C)(C)C)[C@@H](C(=O)O)N(C(=O)C2CCCCC2)[C@H]1c1ccccc1 [Example I-128] |  |  | 1 to 10 | 1 to 10 | +++ (≥350) | 100 to 200 | 
8 | CC(C)(C)c1ccc(CN[C@H]2[C@H](C(C)(C)C)[C@@H](C(=O)O)N(C(=O)[C@@H]3CCCC(F)(F)C3)[C@H]2c2ccccc2)c(Cl)n1 [Example I-247] |  |  | 1 to 10 | 1 to 10 | +++ (≥350) | < 100 | 
9 | COc1ccc(CN(C)C)cc1CN[C@H]1[C@H](C(C)(C)C)[C@@H](C(=O)O)N(C(=O)C2CCCCC2)[C@H]1c1ccccc1 [Example I-85] |  |  | > 10 | > 10 | + (<150) | < 100 | 
10 | COc1ccc(C(C)(C)C)cc1CN[C@H]1[C@H](C(C)(C)OC)[C@@H](C(=O)O)N(C(=O)C2CCCCC2)[C@H]1c1ccccc1 [Example I-61] |  |  | 1 to 10 | < 1 | +++ (≥350) | > 200 | 

Second part, led by results:

Row | EC50 [1] [µM] | EC50 [2] [µM] | EC50 [5] [µM] | EC50 [6] [µM] | Maximum % activity (with co-corrector) [7] | Emax [8] [%] | SMILES | further results
11 | 1 to 10 | 1 to 10 |  |  |  |  | COc1cc(C(F)(F)F)ccc1CN[C@@H]1[C@@H](C(C)(C)C)[C@H](C(=O)O)N(C(=O)C(C)Oc2ccccc2)[C@@H]1c1ccccc1 (single isomer, unassigned) [II-58] | Maximum % activity (with co-corrector) [3]: ++ (≥150 and <350); Emax [4]: < 100%
12 | 1 to 10 | 1 to 10 |  |  |  |  | COc1ccc(C(C)(C)C)cc1CN[C@H]1[C@H](C(C)(C)C)[C@@H](C(=O)O)N(C(=O)CC2CCC(F)(F)CC2)[C@H]1c1ccccc1 [II-188] | Maximum % activity (with co-corrector) [3]: +++ (≥350); Emax [4]: > 200%
13 | 1 to 10 | < 1 |  |  |  |  | COc1ccc(C(C)(C)C)cc1CN[C@H]1[C@H](C(C)(C)C)[C@@H](C(=O)O)N(C(=O)C2Cc3ccccc3S2)[C@H]1c1ccccc1 (stereo partly shown) [II-314] | Maximum % activity (with co-corrector) [3]: +++ (≥350); Emax [4]: > 200%
14 | 1 to 10 | 1 to 10 |  |  |  |  | CC(C)(C)c1cccc(CN[C@H]2[C@H](C(C)(C)C)[C@@H](C(=O)O)N(C(=O)C3CCCCC3)[C@H]2c2ccccc2)c1 [II-121] | Maximum % activity (with co-corrector) [3]: ++ (≥150 and <350); Emax [4]: < 100%
15 |  |  | > 10 | 1 to 10 |  |  | Cc1cc(C(F)(F)F)cc(N[C@@H]2[C@@H](C(C)(C)C)[C@H](C(=O)NS(C)(=O)=O)N(C(=O)C3CCCCC3)[C@@H]2c2ccccc2)n1 (racemic) [III-56] | Emax [9]: < 100%; Maximum % activity (with co-corrector) [10]: ++ (≥150 and <350)
16 | 1 to 10 | < 1 |  |  |  |  | CCn1c(C)c(CC(=O)N2[C@H](C(=O)O)[C@@H](C(C)(C)C)[C@H](NCc3cc(C(C)(C)C)ccc3OC)[C@@H]2c2ccccc2)c2ccccc21 [II-172] | Maximum % activity (with co-corrector) [3]: +++ (≥350); Emax [4]: > 200%
17 |  |  | > 10 | 1 to 10 |  |  | CC(C)(C)[C@@H]1[C@@H](NCc2cc(C(F)(F)F)ccc2OCCCF)[C@@H](c2ccccc2)N(C(=O)C2CCCCC2)[C@H]1C(=O)O (racemic) [III-85] | Emax [9]: < 100%; Maximum % activity (with co-corrector) [10]: ++ (≥150 and <350)
18 | 1 to 10 | < 1 |  |  |  |  | COc1ncc(C(C)(C)C)cc1CN[C@H]1[C@H](C(C)(C)C)[C@@H](C(=O)O)N(C(=O)Cc2c(F)cccc2F)[C@H]1c1ccccc1 [II-301] | Maximum % activity (with co-corrector) [3]: +++ (≥350); Emax [4]: > 200%
19 | < 1 | < 1 |  |  |  |  | COc1ccc(C2CCCCC2)cc1CN[C@H]1[C@H](C(C)(C)C)[C@@H](C(=O)O)N(C(=O)C2CCCCC2)[C@H]1c1ccccc1 [II-192] | Maximum % activity (with co-corrector) [3]: +++ (≥350); Emax [4]: > 200%
20 |  |  | 1 to 10 | 1 to 10 |  |  | Cc1cc(C(F)(F)F)cc(N[C@H]2C(c3ccccc3)N(C(=O)N(C(C)C)C(C)C)[C@@H](C(=O)O)[C@@H]2C2CC2)n1 (mixture of isomers) [III-47] | Emax [9]: < 100%; Maximum % activity (with co-corrector) [10]: ++ (≥150 and <350)
21 |  |  | > 10 | > 10 |  |  | COc1cccc([C@@H]2[C@H](Nc3cc(C(F)(F)F)cc(C)n3)[C@@H](C(C)(C)C)[C@H](C(=O)O)N2C(=O)C2CCCCO2)n1 (mixture of isomers) [III-63] | Emax [9]: < 100%; Maximum % activity (with co-corrector) [10]: + (<150)
22 |  |  | < 1 | < 1 | +++ (≥350) |  | COc1ccc(CC2CCCCC2)cc1CN[C@H]1[C@H](C(C)(C)C)[C@@H](C(=O)O)N(C(=O)C2CCCCC2)[C@H]1c1ccccc1 [III-169] | Emax [9]: > 200%
23 |  |  | > 10 | 1 to 10 | ++ (≥150 and <350) |  | CCOc1cc(N[C@H]2[C@H](C(C)(C)C)[C@@H](C(=O)O)N(C(=O)C3CCCCC3)[C@H]2c2ccccc2)nc2ccccc12 [III-152] | Emax [9]: < 100%
24 | 1 to 10 | < 1 |  |  |  |  | COc1ccc(C(F)(F)F)cc1CN[C@H]1[C@H](C(C)(C)C)[C@@H](C(=O)O)N(C(=O)C2Cc3ccccc3O2)[C@H]1c1ccccc1 (single isomer, unassigned) [II-266] | Maximum % activity (with co-corrector) (CSE-HRP, with co-corrector (2 μM), maximum at any tested concentration, normalized to on-plate positive control, 2 µM): +++ (≥350); Maximum % activity (without co-corrector) [4]: ++ (≥100 and <200)
25 |  |  | > 10 | 1 to 10 |  |  | COCCOc1cnc(Cl)cc1CN[C@@H]1[C@@H](C(C)(C)C)[C@H](C(=O)O)N(C(=O)C2CCCCC2)[C@@H]1c1ccccc1 (racemic) [III-72] | Emax [9]: < 100%; Maximum % activity (with co-corrector) [10]: ++ (≥150 and <350)
